Experimental data taken from patent publication US10144714B2, “Methods of making protein deacetylase inhibitors” (Acetylon Pharmaceuticals, Inc., priority 2015, dated 2018).

Columns and labels:
[1] = Dynamic vapor sorption (DVS) analysis; assay type: physicochemical; settings: relative humidity between 0-95 percent, Form I/Pattern A
Experimental: Dynamic Vapor Soprtion (DVS) analysis was performed using an Aquadyne DVS-2 gravimetric water sorption analyzer. The relative humidity was adjusted between 2-95% and the weight of the sample was continuously monitored and recorded with respect to the relative humidity and time.

[2] = Thermal gravimetric analysis (TGA); assay type: physicochemical; settings: from 35 to 150° C.; Form I
Experimental: Thermal Gravimetric Analysis (TGA) data were collected using a TA Instruments TGA Q500. Approximately, 5-10 mg samples were placed in an open, pre-tared aluminum sample pan and scanned from 25 to 300° C. at a rate of 10° C./min using a nitrogen purge at 60 mL/min.

- change in the crystalline form ([1]; after DVS): no change in the crystalline form
- moisture uptake [1]: less than 0.2%
- weight loss [2]: less than 0.1%
Compound: O=C(CCCCCCNC(=O)c1cnc(N(c2ccccc2)c2ccccc2Cl)nc1)NO [Compound (I), 2-((2-chlorophenyl)(phenyl)amino)-N-(7-(hydroxyamino)-7-oxoheptyl)pyrimidine-5-carboxamide]
